Results on 11 compounds are retold here after ChEMBL document CHEMBL1201862, “PubChem BioAssay data set” (2004).

Each structure is given as a SMILES string.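 Exposure lasted 48 hours, with cells grown in 96-well plates and compounds tested at five concentrations. At the GI50, growth is halved.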 The source made the active and inactive calls. Rule as the data show it: active = GI50 up to about 1.1 µM and inactive = higher.

Some test systems named below: NCI-H226; 786-0; OVCAR-5; HCT-15; SF-539; COLO 205; HL-60; Malme-3M; MOLT-4; OVCAR-4; HOP-92; KM12; CAKI-1; CCRF-CEM; MDA-N; NCI-H460; RXF 393; EKVX; SK-OV-3; OVCAR-3.
Holding throughout (experiment): NCI-60 cell line screen, 48 h

As for `O=C1CSC2(CC(/C=C/c3ccccc3Br)=NN2c2cccc(S(=O)(=O)O)c2)N1c1nc2ccccc2s1` (configuration not stated), the GI50 in the assay on NCI-H226 was 53.2 µM (inactive); in the assay on 786-0, > 100 µM (inactive); in the assay with OVCAR-5, > 100 µM (inactive); with HCT-15 it was over 100 µM; in the assay with SF-539, > 100 µM (inactive); in the assay with COLO 205 it was > 100 µM (inactive). Also, the GI50 in the assay with HL-60 was > 100 µM (inactive); in the assay with Malme-3M, > 100 µM (inactive); in the assay with MOLT-4 it was 52 µM (inactive); in the assay on OVCAR-4, 75.9 µM (inactive); in the assay on HOP-92 it was 87.9 µM (inactive); in the assay with KM12, 98.4 µM (inactive). Moreover, the GI50 in the assay on CAKI-1 was > 100 µM (inactive); in the assay on CCRF-CEM, 30.5 µM (inactive); in the assay on MDA-N, > 100 µM (inactive); with NCI-H460, > 100 µM (inactive); in the assay with RXF 393, > 100 µM (inactive); in the assay with EKVX, > 100 µM (inactive).

As to `COC(=O)c1n[nH]c(C)c1/N=N/N(C)CCC#N`, the GI50 in the assay with NCI-H226 was 12.8 µM (inactive); with 786-0, 17.7 µM (inactive); in the assay on HCT-15, 14.2 µM; in the assay with SF-539, 15.2 µM (inactive); in the assay on SK-OV-3, 19.7 µM (inactive); in the assay on COLO 205, 13.4 µM (inactive). Besides, the GI50 with HL-60 was 27.5 µM (inactive); in the assay on Malme-3M it was 15.2 µM (inactive); in the assay with MOLT-4 it was 3.33 µM (inactive); in the assay with OVCAR-4, 12.9 µM (inactive); in the assay with HOP-92 it was 14.7 µM (inactive); in the assay on KM12, 14.8 µM (inactive). Besides, the GI50 is 11.3 µM (inactive) in the assay on CAKI-1; 7.67 µM (inactive) in the assay with CCRF-CEM; 47.5 µM (inactive) in the assay with MDA-N; 18.7 µM (inactive) in the assay with OVCAR-3; 14.2 µM (inactive) in the assay with NCI-H460; 13.3 µM (inactive) with RXF 393. The GI50 with EKVX is 13.7 µM (inactive).

As to `Nc1ccccc1CCCC(=O)O`, the GI50 is > 100 µM (inactive) in the assay with NCI-H226; > 100 µM (inactive) in the assay with 786-0; > 100 µM (inactive) in the assay with OVCAR-5; over 100 µM in the assay on HCT-15; > 100 µM (inactive) in the assay with SF-539; > 100 µM (inactive) in the assay with SK-OV-3. For the same compound, the GI50 in the assay with COLO 205 was > 100 µM (inactive); in the assay on HL-60, 45.4 µM (inactive); with Malme-3M it was > 100 µM (inactive); in the assay with MOLT-4, > 100 µM (inactive); in the assay with OVCAR-4, > 100 µM (inactive); with HOP-92, > 100 µM (inactive). For the same compound, the GI50 with KM12, in the assay with CAKI-1, with CCRF-CEM, in the assay with MDA-N, in the assay with OVCAR-3 and with NCI-H460 was > 100 µM (inactive) throughout. Further, the GI50 with RXF 393 was > 100 µM (inactive).

In the case of `C/C=C(/C)C(=O)O[C@@H]1c2c(C)coc2C[C@H]2CC[C@H](O)[C@H](C)[C@]21C`, the GI50 with NCI-H226 is 52.1 µM (inactive); with OVCAR-5 it was > 100 µM (inactive); in the assay with HCT-15, 78.5 µM; in the assay on SF-539, 31.9 µM (inactive); in the assay with SK-OV-3, > 100 µM (inactive); with COLO 205, > 100 µM (inactive). In addition, the GI50 was 34.5 µM (inactive) in the assay on HL-60; 26.9 µM (inactive) in the assay on Malme-3M; 30.6 µM (inactive) in the assay with MOLT-4; 39.4 µM (inactive) in the assay on OVCAR-4; 74.8 µM (inactive) in the assay with HOP-92; 46.2 µM (inactive) in the assay on KM12. For the same compound, the GI50 in the assay with CAKI-1 is > 100 µM (inactive); in the assay with CCRF-CEM it was 36.7 µM (inactive); with MDA-N, 50 µM (inactive); with OVCAR-3 it was 27 µM (inactive); with NCI-H460, > 100 µM (inactive); in the assay with RXF 393, 27 µM (inactive). Moreover, the GI50 with EKVX is > 100 µM (inactive).

`CCOC(=O)CC1CCN(C(=O)c2ccccc2)C2Cc3c([nH]c4ccccc34)C12C[N+](=O)[O-]` (configuration not stated): the GI50 in the assay on NCI-H226 is > 100 µM (inactive); in the assay on OVCAR-5 it was > 100 µM (inactive); in the assay on HCT-15 it was 95.7 µM; in the assay with SF-539 it was > 100 µM (inactive); with SK-OV-3 it was > 100 µM (inactive); in the assay on COLO 205 it was 61 µM (inactive). Besides, the GI50 was 38.7 µM (inactive) in the assay with HL-60; > 100 µM (inactive) in the assay on Malme-3M; 35 µM (inactive) in the assay with MOLT-4; > 100 µM (inactive) in the assay on OVCAR-4; 40.6 µM (inactive) in the assay on HOP-92; 71 µM (inactive) in the assay with KM12. Also, the GI50 is 62.2 µM (inactive) in the assay with CAKI-1; 12.6 µM (inactive) with CCRF-CEM; > 100 µM (inactive) in the assay on MDA-N; 65.6 µM (inactive) in the assay on NCI-H460; 77.1 µM (inactive) in the assay with RXF 393; > 100 µM (inactive) in the assay on EKVX.

Regarding `Oc1c(Br)c(-c2ccccc2)nc2ccccc12`, the GI50 is 8.47 µM (inactive) in the assay with NCI-H226; > 10 µM (inactive) in the assay on OVCAR-5; over 62.5 µM in the assay on HCT-15; 82.8 µM (inactive) with SF-539; > 100 µM (inactive) with SK-OV-3; > 21.7 µM (inactive) in the assay with COLO 205. Moreover, the GI50 with HL-60 was 12.2 µM (inactive); in the assay on Malme-3M, 53.2 µM (inactive); with MOLT-4, 8.15 µM (inactive); with OVCAR-4, 39.6 µM (inactive); in the assay with HOP-92, 8 µM (inactive); with KM12 it was 1.18 µM (inactive). For the same compound, the GI50 in the assay with CAKI-1 is 6.32 µM (inactive); with CCRF-CEM, 44 µM (inactive); in the assay on MDA-N it was 39.2 µM (inactive); with OVCAR-3, 50.5 µM (inactive); in the assay on NCI-H460, 10 µM (inactive); with RXF 393, 63.1 µM (inactive). Also, the GI50 in the assay with EKVX is 7.85 µM (inactive).

In the case of `O=C(Nc1nc(C23CC4CC(CC(C4)C2)C3)cs1)c1cc2ccc(O)cc2oc1=O`, the GI50 in the assay with NCI-H226 was 18 µM (inactive); with 786-0 it was 11.6 µM (inactive); in the assay with OVCAR-5 it was 21 µM (inactive); in the assay on HCT-15, 4.46 µM; with SF-539, 17.1 µM (inactive); in the assay with COLO 205, 5.36 µM (inactive). The GI50 with HL-60 is 10.3 µM (inactive); in the assay with Malme-3M it was 12 µM (inactive); in the assay on MOLT-4, 5.9 µM (inactive); with OVCAR-4, 8.26 µM (inactive); in the assay on HOP-92, 3.7 µM (inactive); in the assay with KM12, 6.05 µM (inactive). The GI50 was 19.6 µM (inactive) in the assay with CAKI-1; 14.7 µM (inactive) with CCRF-CEM; 14 µM (inactive) in the assay with MDA-N; 13.8 µM (inactive) with OVCAR-3; 6.5 µM (inactive) in the assay with NCI-H460; 16.4 µM (inactive) in the assay on RXF 393. Also, in the assay on EKVX, the GI50 is 13.2 µM (inactive).

Regarding `Cc1c(-c2ccccc2)c(C#N)c2nnn(C)c(=O)n12`, the GI50 in the assay with NCI-H226 was > 100 µM (inactive); in the assay with 786-0, > 100 µM (inactive); in the assay with OVCAR-5, > 100 µM (inactive); with HCT-15, over 100 µM; in the assay on SF-539, > 100 µM (inactive); in the assay with SK-OV-3 it was 96.2 µM (inactive). Also, the GI50 in the assay on COLO 205, in the assay on HL-60, in the assay with Malme-3M, with OVCAR-4, in the assay on HOP-92 and in the assay on KM12 was > 100 µM (inactive) each time. Further, the GI50 in the assay on CAKI-1 was > 100 µM (inactive); with CCRF-CEM, > 100 µM (inactive); in the assay with MDA-N, > 100 µM (inactive); in the assay with OVCAR-3 it was > 100 µM (inactive); with NCI-H460 it was > 100 µM (inactive); in the assay with RXF 393, 57.1 µM (inactive). In addition, the GI50 in the assay on EKVX is > 100 µM (inactive).

For `CCOC(=O)C(NC(=O)c1ccccc1)(Nc1ccc(S(=O)(=O)Nc2cc(C)nc(C)n2)cc1)C(F)(F)F` (configuration not stated), the GI50 in the assay with NCI-H226 is > 100 µM (inactive); with 786-0 it was > 100 µM (inactive); in the assay on OVCAR-5 it was > 100 µM (inactive); in the assay with HCT-15 it was over 100 µM; in the assay with SF-539, > 100 µM (inactive); in the assay on COLO 205, > 100 µM (inactive). Moreover, the GI50 in the assay with HL-60, in the assay on Malme-3M, with MOLT-4, in the assay with OVCAR-4, in the assay with HOP-92 and in the assay with KM12 was > 100 µM (inactive) each time. The GI50 in the assay on CAKI-1, in the assay with CCRF-CEM, in the assay with MDA-N, in the assay with OVCAR-3, with NCI-H460 and in the assay on RXF 393 was > 100 µM (inactive) in each case. Also, in the assay with EKVX, the GI50 is > 100 µM (inactive).

On to `Nc1ccc(Oc2ccc(C3(c4ccc(Oc5ccc(N)cc5)cc4)C4CC5C6CC7CC5C3C(C7)C6C4)cc2)cc1`, for which the GI50 is > 55.8 µM (inactive) in the assay on NCI-H226; 9.66 µM (inactive) in the assay with 786-0; > 100 µM (inactive) with OVCAR-5; 20.1 µM in the assay on HCT-15; 42.5 µM (inactive) in the assay on SF-539; 42.4 µM (inactive) in the assay with COLO 205. Also, the GI50 in the assay with HL-60 is 14 µM (inactive); in the assay on Malme-3M, > 78.3 µM (inactive); with MOLT-4, 6.08 µM (inactive); in the assay on OVCAR-4 it was 18.8 µM (inactive); in the assay on HOP-92, 0.668 µM (active); with KM12, 10.5 µM (inactive). For the same compound, the GI50 is 39 µM (inactive) with CAKI-1; 2.62 µM (inactive) in the assay on CCRF-CEM; 14.5 µM (inactive) in the assay with MDA-N; 2.01 µM (inactive) with OVCAR-3; 21.1 µM (inactive) in the assay with NCI-H460; 5.4 µM (inactive) in the assay on RXF 393. Besides, in the assay on EKVX, the GI50 is 27 µM (inactive).

With `CC1=C(C(=O)N[C@@H](Cc2ccccc2)C(=O)O)N2C(=O)[C@@H](NC(=O)[C@@H](N)CC(C)C)[C@H]2SC1`, the GI50 in the assay with NCI-H226 is > 100 µM (inactive); in the assay on 786-0, > 100 µM (inactive); in the assay on OVCAR-5 it was > 100 µM (inactive); in the assay with HCT-15, over 100 µM; in the assay with SF-539, > 100 µM (inactive); in the assay with COLO 205 it was > 100 µM (inactive). Moreover, the GI50 in the assay with HL-60, with Malme-3M, in the assay with MOLT-4, in the assay on OVCAR-4, in the assay on HOP-92 and with KM12 was > 100 µM (inactive) throughout. Also, the GI50 in the assay on CAKI-1, with CCRF-CEM, in the assay with MDA-N, with OVCAR-3, with NCI-H460 and with RXF 393 was > 100 µM (inactive) each time. Moreover, the GI50 in the assay with EKVX was > 100 µM (inactive).
